Patent US5232917A, “Methods, compositions, and compounds for allosteric modulation of the GABA receptor by members of the androstane and pregnane series” (priority 1991, dated 1993)
Like-named read-outs stand apart in the source and are kept apart here.

Assays:
[1] = tested on: metrazol-induced seizures; test: Time course of antimetrazol activity of prodrugs; assay type: in vivo, mice (CF1); conditions: 60 mg/kg ip; for responders at 60 mg/kg: Mus musculus
[2] = target: GABA receptor-chloride ionophore complex (GR complex); test: [35S]TBPS binding modulation assay; conditions: for Max. Inhib., maximal % of specifically bound [35S]-TBPS displaced: saturating concentrations of test compound
progesterone receptor = target: T1, progesterone receptor (Bos taurus, UniProt F1N712); test: Inhibition of 3H-progesterone binding to bovine uteral progesterone receptors
T1 construct: from tissue; host or cells: bovine uterus cytosol
T1 sequence (F1N712 1-914): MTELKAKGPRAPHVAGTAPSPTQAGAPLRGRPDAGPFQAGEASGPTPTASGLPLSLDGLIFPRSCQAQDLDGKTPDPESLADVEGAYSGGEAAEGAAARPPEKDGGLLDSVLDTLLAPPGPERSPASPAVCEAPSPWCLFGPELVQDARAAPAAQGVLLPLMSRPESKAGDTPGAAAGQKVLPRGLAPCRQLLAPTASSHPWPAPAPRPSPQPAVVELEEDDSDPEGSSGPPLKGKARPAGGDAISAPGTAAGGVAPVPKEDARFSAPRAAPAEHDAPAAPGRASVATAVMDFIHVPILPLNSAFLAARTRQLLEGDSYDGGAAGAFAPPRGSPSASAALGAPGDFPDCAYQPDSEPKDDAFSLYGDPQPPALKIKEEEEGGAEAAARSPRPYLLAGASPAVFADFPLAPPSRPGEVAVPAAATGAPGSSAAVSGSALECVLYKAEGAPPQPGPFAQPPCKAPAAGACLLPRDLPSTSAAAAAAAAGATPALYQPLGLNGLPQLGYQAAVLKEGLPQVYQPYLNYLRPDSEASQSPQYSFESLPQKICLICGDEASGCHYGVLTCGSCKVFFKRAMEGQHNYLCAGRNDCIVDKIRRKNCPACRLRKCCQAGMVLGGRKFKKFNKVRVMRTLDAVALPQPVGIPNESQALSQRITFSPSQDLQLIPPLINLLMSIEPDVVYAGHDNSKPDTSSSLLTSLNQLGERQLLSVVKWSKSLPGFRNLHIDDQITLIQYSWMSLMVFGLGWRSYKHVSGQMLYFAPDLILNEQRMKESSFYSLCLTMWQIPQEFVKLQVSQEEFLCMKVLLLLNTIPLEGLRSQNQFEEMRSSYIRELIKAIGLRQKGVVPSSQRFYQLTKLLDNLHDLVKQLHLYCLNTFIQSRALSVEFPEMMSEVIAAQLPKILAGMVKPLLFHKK
Method: The hormonal activity of drugs described herein was further studied through testing their potential estrogenic, progestinic, mineralocorticoid and glucocorticoid activities. These activities were analyzed by monitoring the ability of the drugs to inhibit binding of the steroid hormones to their respective hormone receptors.
For the data presented in Table 9, bovine uteri cytosol was isolated as they were for Table 7 and used for following binding to progesterone receptors by following the inhibition of ^3 H-progesterone, the natural ligand.

[3] = 1 hr, read-out: Antimetrazol activity, % of animals protected, 1 hr
[4] = 4 hr, read-out: Antimetrazol activity, % of animals protected, 4 hr
[5] = read-out: IC50, inhibition of [35S]-TBPS binding, +5 μM GABA, in the presence of 5 μM GABA
[6] = read-out: % of inhibition of 3H-progesterone binding, A, competitor 10^-5 M, 0.15 nM 3H-progesterone
[7] = read-out: % of inhibition of 3H-progesterone binding, A, competitor 10^-6 M, 0.15 nM 3H-progesterone
[8] = read-out: % of inhibition of 3H-progesterone binding, B, competitor 10^-5 M, 0.25 nM 3H-progesterone
[9] = read-out: % of inhibition of 3H-progesterone binding, B, competitor 10^-6 M, 0.25 nM 3H-progesterone
[10] = washed synaptoneurosomes, no GABA added
[11] = read-out: IC50, inhibition of [35S]-TBPS binding, No GABA, washed synaptoneurosomes, no GABA added

SMILES	responders at 60 mg/kg [1, 3]	IC50 [2, 5]	Max. Inhib., maximal % of specifically bound [35S]-TBPS displaced [2]	further results
CCC(=O)O[C@@H]1CC[C@@]2(C)[C@@H](CC[C@@H]3[C@@H]2CC[C@]2(C)[C@@H](C(C)=O)CC[C@@H]32)C1	75%			responders at 60 mg/kg [1, 4]: 0%
CCCC(=O)O[C@@H]1CC[C@@]2(C)[C@@H](CC[C@@H]3[C@@H]2CC[C@]2(C)[C@@H](C(C)=O)CC[C@@H]32)C1	75%			responders at 60 mg/kg [1, 4]: 13%
CCCCC(=O)O[C@@H]1CC[C@@]2(C)[C@@H](CC[C@@H]3[C@@H]2CC[C@]2(C)[C@@H](C(C)=O)CC[C@@H]32)C1	33%			Antimetrazol activity, % of animals protected, 20 hr [1]: 33%; responders at 60 mg/kg [1, 4]: 33%
CC(=O)[C@H]1CC[C@H]2[C@@H]3CC[C@H]4C[C@H](OC(=O)C(C)C)CC[C@]4(C)[C@H]3CC[C@]12C	75%			responders at 60 mg/kg [1, 4]: 29%
CC(=O)[C@H]1CC[C@H]2[C@@H]3CC[C@H]4C[C@H](OC(=O)C5CCC5)CC[C@]4(C)[C@H]3CC[C@]12C	17%			Antimetrazol activity, % of animals protected, 20 hr [1]: 17%
CC(=O)[C@H]1CC[C@H]2[C@@H]3CC[C@H]4C[C@H](OC(=O)c5ccccc5)CC[C@]4(C)[C@H]3CC[C@]12C	33%			
CC(=O)[C@H]1CC[C@H]2[C@@H]3CC[C@H]4C[C@H](OC(=O)c5ccc(Cl)cc5)CC[C@]4(C)[C@H]3CC[C@]12C	50%			responders at 60 mg/kg [1, 4]: < 16%
COc1ccc(C(=O)O[C@@H]2CC[C@@]3(C)[C@@H](CC[C@@H]4[C@@H]3CC[C@]3(C)[C@@H](C(C)=O)CC[C@@H]43)C2)cc1	17%			responders at 60 mg/kg [1, 4]: 17%
CC(=O)[C@H]1CC[C@H]2[C@@H]3CC[C@H]4C[C@H](OC(=O)c5cccnc5)CC[C@]4(C)[C@H]3CC[C@]12C				Antimetrazol activity, % of animals protected, 20 hr [1]: 50%
CC(=O)[C@H]1CC[C@H]2[C@@H]3CC[C@H]4C[C@H](OC(=O)C5=CN(C)C=CC5)CC[C@]4(C)[C@H]3CC[C@]12C	0%			Antimetrazol activity, % of animals protected, 20 hr [1]: 63%; responders at 60 mg/kg [1, 4]: 0%
CC(=O)[C@H]1CC[C@H]2[C@@H]3CC[C@H]4C[C@@H]5O[C@@H]5C[C@]4(C)[C@H]3CC[C@]12C [2,3-EPOXY-5α-PREGNAN-20-ONE, 2α,3α-Epoxy-5α-pregnan-20-one, reference compound]		100 µM		
CC(C)(O)[C@H]1CC[C@H]2[C@@H]3CC[C@H]4C[C@](C)(O)CC[C@]4(C)[C@H]3CC[C@]12C [3α,20-dihydroxy-3β,20-dimethyl-5α-pregnane]			50%	inhibition at 10 µM (progesterone receptor; [6]): 5%; inhibition at 1 µM (progesterone receptor; [7]): 8%; inhibition at 10 µM (progesterone receptor; [8]): 0%; inhibition at 1 µM (progesterone receptor; [9]): 0%
C[C@]12CC[C@@H](O)C[C@@H]1CC[C@@H]1[C@@H]2CC[C@]2(C)[C@@H](C(=O)O)CC[C@@H]12 [3α-HYDROXY-5α-ANDROSTAN-17β-CARBOXYLATE, 3α-Hydroxy-5α-androstane-17β-carboxylic acid]		2.68 µM	63%	
C/C=C1/CC[C@H]2[C@@H]3CC[C@H]4C[C@H](O)CC[C@]4(C)[C@H]3CC[C@]12C [3α-HYDROXY-5α-CIS-PREGN-17(20)-ENE, 3α-hydroxy-(5α)-cis-pregn-17(20)-ene]		0.068 µM	100%	
CC(=O)C1=CC[C@H]2[C@@H]3CC[C@H]4C[C@H](O)CC[C@]4(C)[C@H]3CC[C@]12C [3α-HYDROXY-5α-PREGN-16-EN-20-ONE]		0.161 µM	100%	
CO[C@@H]1C[C@H]2[C@@H]3CC[C@H]4C[C@H](O)CC[C@]4(C)[C@H]3CC[C@]2(C)[C@H]1C(C)=O [3α-HYDROXY-5α-PREGNAN-16α-METHOXY-20-ONE]		4.5 µM	73%	
CC(=O)C1=CC[C@H]2[C@@H]3CC[C@@H]4C[C@H](O)CC[C@]4(C)[C@H]3CC[C@]12C [3α-HYDROXY-5β-PREGN-16-EN-20-ONE]		1 µM	100%	
CC(=O)[C@H]1CC[C@H]2[C@@H]3CC[C@H]4C[C@@](C)(O)CC[C@]4(C)[C@H]3CC[C@]12C [3β-HYDROXY-3α-METHYL-5α-PREGNAN-20-ONE, 3β-HYDROXY-3α-METHYL-5α- PREGNAN-20-ONE]		7.4 µM	55%	
C[C@]12C[C@H](O)[C@H]3[C@@H](CCC4=CC(=O)CC[C@@]43C)[C@@H]1CC[C@@H]2C(=O)CO [4-PREGNEN-11b,21-DIOL- 3,20-DIONE, reference compound]		> 100 µM	21%	IC50, inhibition of [35S]-TBPS binding, No GABA [2, 10]: Inactive
CC(=O)[C@H]1CC[C@H]2[C@@H]3CC=C4C[C@@H](O)CC[C@]4(C)[C@H]3CC[C@]12C [5-PREGNEN-3β-OL-20-ONE (PREGNENOLONE), 5-PREGNEN-3β-OL-20-ONE, reference compound]		> 100 µM	30%	IC50, inhibition of [35S]-TBPS binding, No GABA [2, 10]: Inactive
C[C@]12CC[C@@H](O)C[C@@H]1CC[C@@H]1[C@@H]2CC[C@]2(C)[C@@H](O)CC[C@@H]12 [5α-ANDROSTAN-3α,17β-DIOL, 5α-ANDROSTAN-3α ,17β-DIOL]		1 µM	100%	IC50 [2, 11]: 15 µM
C[C@]12CCC(=O)C[C@@H]1CC[C@@H]1[C@@H]2CC[C@]2(C)[C@@H](O)CC[C@@H]12 [5α-ANDROSTAN-17β-OL-3-ONE, 5α-ANDROSTAN-17β-OL-3- ONE, reference compound]		18 µM	52%	IC50 [2, 11]: > 100 µM
C[C@@H](O)[C@H]1CC[C@H]2[C@@H]3CC[C@H]4C[C@H](O)CC[C@]4(C)[C@H]3CC[C@]12C [5α-PREGNAN-3α,20β-DIOL]		1 µM	100%	
C[C@]12CC[C@@H](O)C[C@@H]1CC[C@H]1[C@@H]3CC[C@H](C(=O)CO)[C@@]3(C)CC(=O)[C@@H]12 [5α-PREGNAN-3α,21-DIOL-11,20-DIONE, 5α-PREGNAN-3α,21-DIOL- 11,20-DIONE]		5.5 µM		IC50 [2, 11]: > 100 µM
C[C@H](O)[C@H]1CC[C@H]2[C@@H]3CC[C@@H]4C[C@H](O)CC[C@]4(C)[C@H]3CC[C@]12C [5β-pregnan-3α,20α-diol]				inhibition at 10 µM (progesterone receptor; [6]): 1%; inhibition at 10 µM (progesterone receptor; [8]): 1%
CC(=O)[C@H]1CC[C@H]2[C@@H]3CC[C@@H]4C[C@H](O)CC[C@]4(C)[C@H]3CC[C@]12C [5β-pregnan-3α,ol-20-one]				inhibition at 10 µM (progesterone receptor; [6]): 17%; inhibition at 1 µM (progesterone receptor; [7]): 9%; inhibition at 10 µM (progesterone receptor; [8]): 13%; inhibition at 1 µM (progesterone receptor; [9]): 1%
C[C@]12CC[C@@H]3c4ccc(O)cc4CC[C@H]3[C@@H]1CC[C@@H]2O [17β-ESTRADIOL, reference compound]			0%	IC50, inhibition of [35S]-TBPS binding, +5 μM GABA ([2]; in the presence of 5 μM GABA): Inactive; IC50, inhibition of [35S]-TBPS binding, No GABA [2, 10]: Inactive
C[C@]12CC[C@@H](O)C[C@@H]1CC[C@@H]1[C@@H]2CC[C@]2(C)[C@@H](C(=O)CCl)CC[C@@H]12 [21-CHLORO-5α-PREGNAN-3α-OL-20-ONE]		0.08 µM	100%	
CC(C)CCC[C@@H](C)[C@H]1CC[C@H]2[C@@H]3CC=C4C[C@@H](O)CC[C@]4(C)[C@H]3CC[C@]12C [CHOLESTEROL, reference compound]			0%	IC50, inhibition of [35S]-TBPS binding, +5 μM GABA ([2]; in the presence of 5 μM GABA): Inactive; potency/activity at the GR complex ([2]; modulation of [35S]TBPS binding): essentially inactive; IC50, inhibition of [35S]-TBPS binding, No GABA [2, 10]: Inactive
CC(=O)[C@H]1CC[C@H]2[C@@H]3CC[C@H]4C[C@H](O)CC[C@]4(C)[C@H]3C(=O)C[C@]12C [alphaxalone, 5α-PREGNAN-3α-OL-11,20-DIONE, reference compound]		0.264 µM		IC50 [2, 11]: 11 µM
